Measurements: US20250011368A1, “DLL3 TARGETING PEPTIDES AND CONSTRUCTS THEREOF” (MARIANA ONCOLOGY INC., priority 2023, published 2025)
Numbered stars: 1 amine (or outer) side, 2 acyl side, 3 side chain; on linkers, the order of the positions; unused ones are H or OH. Bridge positions count the residues as written; N and C are the ends. Square brackets hold non-standard residues; d marks the D form. Peptide text beside a SMILES is read from it. * marks the point of attachment. Ala(piperidin-4-yl) = O=C([C@H](CC1CCN([*:3])CC1)N[*:1])[*:2]; DOTA = O=C(O)CN1CCN(CC(=O)O)CCN(CC(=O)*)CCN(CC(=O)O)CC1; 2Nal = N[C@@H](Cc1ccc2ccccc2c1)C(=O)O; Lauroyl = CCCCCCCCCCCC(=O)*

T1: human DLL3 (Homo sapiens, UniProt Q9NYJ7)
T1 sequence (Q9NYJ7 27-618): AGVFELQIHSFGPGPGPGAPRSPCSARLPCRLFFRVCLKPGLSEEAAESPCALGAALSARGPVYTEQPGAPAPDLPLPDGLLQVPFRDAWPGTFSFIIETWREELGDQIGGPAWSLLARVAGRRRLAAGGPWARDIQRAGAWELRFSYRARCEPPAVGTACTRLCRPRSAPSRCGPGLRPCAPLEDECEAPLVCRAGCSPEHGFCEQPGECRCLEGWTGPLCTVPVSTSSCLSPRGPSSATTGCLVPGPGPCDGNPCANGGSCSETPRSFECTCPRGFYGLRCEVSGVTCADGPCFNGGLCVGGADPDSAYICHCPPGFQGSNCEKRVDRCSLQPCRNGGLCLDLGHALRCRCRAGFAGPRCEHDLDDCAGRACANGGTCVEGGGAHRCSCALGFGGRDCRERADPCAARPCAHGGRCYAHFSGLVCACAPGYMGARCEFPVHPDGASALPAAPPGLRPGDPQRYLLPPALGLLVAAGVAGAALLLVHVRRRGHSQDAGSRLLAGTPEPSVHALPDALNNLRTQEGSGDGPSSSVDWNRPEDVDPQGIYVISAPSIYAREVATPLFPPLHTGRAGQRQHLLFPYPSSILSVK

T2: Biotinylated human DLL3 (Delta Like Canonical Notch Ligand 3) (human, UniProt Q9NYJ7 27-492, limits assumed, biotinylated (site not stated))
T2 construct: also called Delta-like protein 3; biotinylated target ligand human DLL3
T2 sequence: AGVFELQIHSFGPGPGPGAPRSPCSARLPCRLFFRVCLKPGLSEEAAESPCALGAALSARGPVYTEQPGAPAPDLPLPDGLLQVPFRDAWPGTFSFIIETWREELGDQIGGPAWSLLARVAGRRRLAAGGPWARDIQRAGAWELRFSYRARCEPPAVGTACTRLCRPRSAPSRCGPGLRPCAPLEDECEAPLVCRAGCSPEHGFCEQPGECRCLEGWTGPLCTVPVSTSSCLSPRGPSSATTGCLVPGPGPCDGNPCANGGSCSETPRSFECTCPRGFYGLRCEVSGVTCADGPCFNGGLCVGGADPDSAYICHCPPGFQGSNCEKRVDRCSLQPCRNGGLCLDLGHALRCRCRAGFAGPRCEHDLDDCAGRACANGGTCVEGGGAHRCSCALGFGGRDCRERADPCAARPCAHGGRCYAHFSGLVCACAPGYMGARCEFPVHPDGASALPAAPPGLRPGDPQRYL


Tests used:
human DLL3 = target: T1, human DLL3; test: Affinity determination by Surface Plasmon Resonance (SPR); assay type: binding; details: 25° C., biotinylated human DLL3 immobilized on streptavidin sensor chip, 1:1 binding model; read-out: SPR KD
Procedure, shortened: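 Biotinylated human DLL3 was captured on a streptavidin chip with a reference surface. Compounds at several concentrations were injected at 100 μL/minute in phosphate buffer (137 mM NaCl, 2.7 mM KCl, 0.05% P20, 2% DMSO). Affinity and kinetics came from 1:1 model fits of the sensorgrams.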

CT26.DLL3 cells [1] = test: Cell binding (total uptake) of [177Lu]Lu-test peptide, CT26.DLL3 cells; assay type: cell-based; details: 1 hour at 37° C.
Procedure, shortened: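 CT26.DLL3 cells (5–25 million/condition) in 1% PBSA incubated 1 h at 37°C with [177Lu]Lu-labelled peptide (0.8 μCi in 300 μL), radiolabelled at pH ~5, 80°C. Cells pelleted, washed twice with cold PBS+1% BSA; bound and unbound fractions gamma-counted, uptake binned as ≤25%, 25–50%, >50%.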

CT26.DLL3 cells [2] = test: Internalization (out of bound fraction) of [177Lu]Lu-test peptide, CT26.DLL3 cells; assay type: cell-based; details: 1 hour at 37° C., glycine pH 2.5 wash
Procedure, shortened: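 [177Lu]Lu-peptide (labelled at 80 °C, pH ~5, 17-20 min) incubated with 5-25 million CT26.DLL3 cells in 1% PBSA, 0.8 μCi, 1 h at 37 °C. Surface-bound activity stripped twice with 50 mM glycine pH 2.5, 3 min; NaOH-solubilized cell activity gamma-counted as internalized fraction, binned ≤25%, 25-50%, >50%.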

SHP-77 cells [3] = test: Cell binding (total uptake) of [177Lu]Lu-test peptide, SHP-77 cells; assay type: cell-based; details: SHP77 cells, 1 hour at 37° C., bound fraction
Experimental: [^177Lu]LuCl3 was received from venders in HCl solution. For every mCi of [^177Lu]LuCl3 added to the reaction vial (1.5 mL Eppendorf vial), ammonium acetate buffer (0.2 M, pH 4.9, 100 μL, containing 1% w/v ascorbic acid and 6% v/v ethanol) and peptide conjugate (1 nmol). A peptide conjugate of the present disclosure is also referred to herein as a “chelator-peptide”. The pH of the solution was determined to be approximately 5 by using pH strips. The reaction vial was incubated at 80° C., 700 RPM for 17-20 minutes. A sample from the reaction was analyzed by RP-HPLC using an Agilent Infinity II 1260 HPLC to determine reaction completion and radiochemical purity of [^177Lu]Lu-chelator-peptide. HPLC conditions: Waters XBridge BEH C18 Column, 130 Å, 3.5 um, 4.6 mm×250 mm; mobile phase: Solvent A=water (with 0.1% formic acid), solvent B=acetonitrile (with 0.1% formic acid). Gradients: 25-45% B in 10 minutes, 45-65% B in 12 minutes, 65-90% in 6 minutes at a flow rate of 0.5 mL/minute. Required amounts of the product was formulated in 1% PBSA for cell studies.
The study was conducted using SHP-77, CT26.WT, and CT26.DLL3 cells (Table 7) Adherent cell studies: The cells were cultured in appropriate culture media (20 mL) in tissue culture treated T150 flasks at 37° C. and 5% CO2. Adherent cells were detached (60-70% confluent) using 5 mL Versene at 37° C. for 3 minutes. After confirming the viability using countess and count of detached cells using Trypan blue, the cells were centrifuged at 4° C. for 5 minutes (1,000 rpm). The cell pellet obtained was washed once with PBS and resuspended in 1% PBSA to obtain the desired cell concentration (5-25 million cells/mL).
Suspension cell studies: The cells were cultured in appropriate culture media (20 mL) in tissue culture treated T150 flasks at 37° C. and 5% CO2. After confirming the viability and count of detached cells using Trypan blue, the cells were centrifuged at 4° C. for 5 minutes (1,000 rpm). The cell pellet obtained was washed once with PBS and resuspended in 1% PBSA to obtain the desired cell concentration (5-25 million cells/mL).
Cell numbers used for the assay were in the range of 5 million cells/condition −25 million cells/condition.
Total uptake: Cells were incubated with 300 μL (0.8 μCi) of the incubation buffer (containing radiolabeled peptide [^177Lu] Lu-test peptide) for 1 hour at 37° C. (Table 8). Post incubation, the cells were pelleted and washed 2 times using cold PBS+1% BSA. The supernatant and washes were combined and counted together as “unbound fraction” in a gamma counter. The cells were then resuspended in 300 μL of 1% PBS+1% BSA and counted in the gamma counter as “bound fraction”.
In these Tables, “A” represents %≤25; “B” represents 25<%≤50; “C” represents %>50.

SHP-77 cells [4] = test: Internalization (out of bound fraction) of [177Lu]Lu-test peptide, SHP-77 cells; assay type: cell-based; details: SHP77 cells, 1 hour at 37° C., after 50 mM Glycine pH=2.5 wash
Experimental: [^177Lu]LuCl3 was received from venders in HCl solution. For every mCi of [^177Lu]LuCl3 added to the reaction vial (1.5 mL Eppendorf vial), ammonium acetate buffer (0.2 M, pH 4.9, 100 μL, containing 1% w/v ascorbic acid and 6% v/v ethanol) and peptide conjugate (1 nmol). A peptide conjugate of the present disclosure is also referred to herein as a “chelator-peptide”. The pH of the solution was determined to be approximately 5 by using pH strips. The reaction vial was incubated at 80° C., 700 RPM for 17-20 minutes. A sample from the reaction was analyzed by RP-HPLC using an Agilent Infinity II 1260 HPLC to determine reaction completion and radiochemical purity of [^177Lu]Lu-chelator-peptide. […]
Total uptake: Cells were incubated with 300 μL (0.8 μCi) of the incubation buffer (containing radiolabeled peptide [^177Lu] Lu-test peptide) for 1 hour at 37° C. […] The supernatant and washes were combined and counted together as “unbound fraction” in a gamma counter. The cells were then resuspended in 300 μL of 1% PBS+1% BSA and counted in the gamma counter as “bound fraction”.
Internalization: The resuspended cells in 300 μl of 1% PBSA and counted in the gamma counter as “bound fraction” were collected in 1.5 mL Eppendorf tube and pelleted. […] This was counted in the gamma counter as “internalized fraction”. […]

SHP-77 tumors = test: Ex vivo biodistribution of radiolabeled peptides in nude mice bearing SHP-77 tumors; details: [177Lu]Lu labelling, nude mice bearing SHP-77 tumors (n = 3), 24 hours post-injection
Procedure, shortened: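 Nude mice bearing SHP-77 xenografts (200-400 mm^3) or tumor-naïve mice (5-7 weeks) received an intravenous tail-vein bolus of [^177Lu]Lu-peptide and were euthanized at pre-set time points. Tissues were weighed and gamma-counted, with counts decay-corrected to injection time. Values are % IA/g per tissue from the injected activity of each mouse.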

[5] = target: T2, Biotinylated human DLL3 (Delta Like …); test: SPR; letter grade, key in paragraph 614; lower limit of grade B
Experimental: (§1) Biotinylated target ligand human DLL3 was immobilized on a streptavidin sensor chip. A reference surface was set up for nonspecific binding and refractive index changes. For analysis of the kinetics of interactions, varying concentrations of samples were injected at a flow rate of 100 μL/minute using running buffer containing 20 mM phosphate buffer with 2.7 mM KCl, 137 mM NaCl, 0.05% Surfactant P20 and 2% DMSO. Sensorgram curves were fitted with 1:1 binding model, and affinity and kinetic parameters were obtained using Biacore Insight evaluation 4.0. software.

[6] = target: T2, Biotinylated human DLL3 (Delta Like …); test: SPR; letter grade, key in paragraph 614; upper limit of grade B
Experimental: as §1

Row | Kd (human DLL3) [nM] | kidney uptake (% IA/g) (SHP-77 tumors; kidney) | tumor uptake (% IA/g) (SHP-77 tumors; tumor) | Kd [5] [nM] | Kd [6] [nM] | Molecule | % Binding (CT26.DLL3 cells [1]) | % Internalization (out of bound fraction) (CT26.DLL3 cells [2]) | % Binding (SHP-77 cells [3]) | % Internalization (out of bound fraction) (SHP-77 cells [4])
1 | 1 to 10 | C (0 < % IA/g ≤ 10 in kidney) | A (0 < % IA/g ≤ 5 in tumor) |  |  | CCCCCCCCCCCC(=O)NCCCC[C@@H]1NC(=O)[C@H](Cc2ccc3ccccc3c2)NC(=O)[C@H](CC(N)=O)NC(=O)[C@H](CC2CCNCC2)NC(=O)[C@@H](NC(=O)[C@@H](NC(=O)[C@@H](NC(=O)[C@H](Cc2c[nH]c3ccccc23)NC(C)=O)[C@@H](C)O)[C@@H](C)CC)CSSC[C@@H](C(=O)N[C@@H](Cc2c[nH]c3ccccc23)C(=O)N2CCC[C@H]2C(=O)N[C@H](CCCCNC(=O)CN2CCN(CC(=O)O)CCN(CC(=O)O)CCN(CC(=O)O)CC2)C(N)=O)NC(=O)[C@H](CC(=O)O)NC1=O [compound 326, Ac-W-T-I-C(3)-[3-(4-piperidinyl)-Ala]-N-(2Nal)-K(C12)-D-C(3)-W-P-[D-Lys(DOTA)]-NH2] (Ac-WTIC[Ala(piperidin-4-yl)]N[2Nal]K(Lauroyl)DCWP[dK](DOTA)-NH2; disulfide 4-10) | A (%≤25) | C (%>50) | A (%≤25) | B (25<%≤50)
2 |  |  |  | > 1 | ≤ 10 | Ac-WTICNNWHDCWP[dK](DOTA)-NH2 (disulfide 4-10) [Cpd No. 23] |  |  |  | 
